Inhibition and IC50 data for eleven compounds are collected here from patent US10093630B2, “Pyrazole compounds and methods of making and using same” (ABIDE THERAPEUTICS, INC., priority 2014, dated 2018).

One may read the inhibition as the change of the read-out against control, counted positive when it falls. Usually IC50 stands for the point on the concentration scale where inhibition reaches its midpoint.

Test in all cases: In vitro competitive activity-based protein profiling (gel-based, FP-Rh or HT-01 probe)
Common to all, as to type: biochemical

Experiment [1] concerns the target T1, MAGL (Mus musculus, UniProt O35678).
T1 construct: Proteomes (mouse brain membrane fraction or cell lysates); from tissue; host or cells: mouse brain membrane fraction (or cell lysates, not specified)
T1 sequence (O35678 1-303): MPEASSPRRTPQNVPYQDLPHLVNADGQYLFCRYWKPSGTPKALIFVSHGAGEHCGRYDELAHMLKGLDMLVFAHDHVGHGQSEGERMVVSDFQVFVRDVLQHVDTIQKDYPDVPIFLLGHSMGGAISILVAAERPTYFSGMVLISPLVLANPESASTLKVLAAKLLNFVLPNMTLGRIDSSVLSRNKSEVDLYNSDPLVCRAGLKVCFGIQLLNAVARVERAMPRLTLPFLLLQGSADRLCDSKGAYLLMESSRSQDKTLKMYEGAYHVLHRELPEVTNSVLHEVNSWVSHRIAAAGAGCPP
The following applies: for inhibition at 1 µM: 1 μM inhibitor; for inhibition at 10 µM: 10 μM inhibitor; for IC50: mouse brain membrane fraction or cell lysates, 30 min preincubation at 37° C., read-out: Mouse (IC50 value, nM) MAGL. In outline:
(§1)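 Mouse brain membrane proteome or cell lysate (1.0 mg/mL protein) was preincubated with inhibitor at varying concentrations for 30 min at 37° C, then labelled with FP-Rh or HT-01 for 30 min at 37° C. After SDS-PAGE, residual hydrolase activity was quantified as in-gel fluorescence of each band.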

Experiment [2] addresses T2, PLA2G7 (Mus musculus, UniProt Q60963).
T2 construct: Proteomes (mouse brain membrane fraction or cell lysates); from tissue; host or cells: mouse brain membrane fraction (or cell lysates, not specified)
T2 sequence (Q60963 22-440): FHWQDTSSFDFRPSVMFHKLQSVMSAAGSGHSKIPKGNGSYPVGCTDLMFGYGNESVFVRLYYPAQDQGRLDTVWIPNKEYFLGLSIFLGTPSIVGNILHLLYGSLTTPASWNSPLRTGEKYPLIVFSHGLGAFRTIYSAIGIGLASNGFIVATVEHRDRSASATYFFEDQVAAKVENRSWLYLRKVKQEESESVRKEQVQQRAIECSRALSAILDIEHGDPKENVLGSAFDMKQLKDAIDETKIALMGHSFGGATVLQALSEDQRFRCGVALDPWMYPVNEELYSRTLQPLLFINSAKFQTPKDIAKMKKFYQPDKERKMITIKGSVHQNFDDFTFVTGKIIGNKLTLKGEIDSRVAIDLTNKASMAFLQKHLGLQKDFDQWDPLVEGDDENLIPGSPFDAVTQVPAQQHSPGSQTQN
As to conditions: for inhibition at 1 µM: 1 μM inhibitor, read-out: % Inhibition at 1 μM, D = PLA2G7; for inhibition at 10 µM: 10 μM inhibitor, read-out: % Inhibition at 10 μM, D = PLA2G7. In outline:
as §1

In experiment [3] the target is T3, FAAH (Mus musculus, UniProt O08914).
T3 construct: Proteomes (mouse brain membrane fraction or cell lysates); from tissue; host or cells: mouse brain membrane fraction (or cell lysates, not specified)
T3 sequence (O08914 1-579): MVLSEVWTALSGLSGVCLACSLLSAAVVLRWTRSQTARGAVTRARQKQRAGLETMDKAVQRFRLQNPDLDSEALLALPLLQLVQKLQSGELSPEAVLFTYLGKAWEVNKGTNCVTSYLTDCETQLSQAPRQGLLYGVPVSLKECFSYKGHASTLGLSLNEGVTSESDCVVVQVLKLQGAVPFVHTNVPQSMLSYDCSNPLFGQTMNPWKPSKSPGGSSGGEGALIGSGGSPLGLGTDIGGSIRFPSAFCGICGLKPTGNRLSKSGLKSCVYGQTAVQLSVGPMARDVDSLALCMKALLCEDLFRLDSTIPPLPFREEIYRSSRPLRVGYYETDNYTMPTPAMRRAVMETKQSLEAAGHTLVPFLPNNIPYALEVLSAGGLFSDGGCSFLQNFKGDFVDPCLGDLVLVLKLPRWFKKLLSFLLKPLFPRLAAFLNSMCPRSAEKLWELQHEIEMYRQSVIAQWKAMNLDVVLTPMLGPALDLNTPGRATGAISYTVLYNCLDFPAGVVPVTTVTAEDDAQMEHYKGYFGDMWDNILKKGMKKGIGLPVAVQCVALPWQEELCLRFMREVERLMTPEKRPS
The following applies: for inhibition at 1 µM: 1 μM inhibitor, read-out: % Inhibition at 1 μM, B = FAAH; for inhibition at 10 µM: 10 μM inhibitor, read-out: % Inhibition at 10 μM, B = FAAH; for IC50: mouse brain membrane fraction or cell lysates, 30 min preincubation at 37° C., read-out: Mouse (IC50 value, nM) FAAH. The method in brief:
as §1

Experiment [4] addresses T4, ABHD6 (Mus musculus, UniProt Q8R2Y0).
T4 construct: Proteomes (mouse brain membrane fraction or cell lysates); from tissue; host or cells: mouse brain membrane fraction (or cell lysates, not specified)
T4 sequence (Q8R2Y0 1-336): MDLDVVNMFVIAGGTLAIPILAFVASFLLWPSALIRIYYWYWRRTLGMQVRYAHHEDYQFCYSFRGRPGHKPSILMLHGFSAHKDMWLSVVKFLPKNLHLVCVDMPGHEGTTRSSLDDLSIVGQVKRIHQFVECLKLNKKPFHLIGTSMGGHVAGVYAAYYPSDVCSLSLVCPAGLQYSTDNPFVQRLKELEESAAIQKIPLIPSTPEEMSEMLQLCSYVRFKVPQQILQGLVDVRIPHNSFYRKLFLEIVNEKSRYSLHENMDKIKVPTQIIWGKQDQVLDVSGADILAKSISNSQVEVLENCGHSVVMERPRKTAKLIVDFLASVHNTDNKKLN
The following applies: for inhibition at 1 µM: 1 μM inhibitor, read-out: % Inhibition at 1 μM, C = ABHD6; for inhibition at 10 µM: 10 μM inhibitor, read-out: % Inhibition at 10 μM, C = ABHD6; for IC50: mouse brain membrane fraction or cell lysates, 30 min preincubation at 37° C., read-out: Mouse (IC50 value, nM) ABHD6. In outline: as §1

SMILES strings stand for the structures. Read-outs that look alike come from different tables or passages of the source.

`Cc1ccccc1CN1CCN(C(=O)n2cc(C(F)(F)F)cn2)CC1` [Example 277, (4-(2-Methylbenzyl)piperazin-1-yl)(4-(trifluoromethyl)-1H-pyrazol-1-yl)methanone]: the inhibition at 1 µM in experiment [1] (gel-based competitive ABPP), in experiment [2] (gel-based competitive ABPP), in experiment [3] (gel-based competitive ABPP) and in experiment [4] (gel-based competitive ABPP) was greater than 75% throughout.

As to `CN(CCN(C)C(=O)n1cccn1)C(=O)OC(C)(C)C` [Example 28, tert-Butyl methyl(2-(N-methyl-1H-pyrazole-1-carboxamido)ethyl)carbamate], the inhibition at 1 µM in experiment [1], in experiment [2], in experiment [3] and in experiment [4] was less than 25% throughout. Besides, the inhibition at 10 µM in experiment [1] was 25 to 75%; in experiment [2], less than 25%; in experiment [3] it was 25 to 75%; in experiment [4], 25 to 75%.

For `O=C(N1CCCC1)n1cc(-c2ccc(-c3ccccc3)cc2)cn1` [Example 106, (4-([1,1′-Biphenyl]-4-yl)-1H-pyrazol-1-yl)(pyrrolidin-1-yl)methanone], the inhibition at 10 µM was less than 25% in experiment [1], 25 to 75% in experiment [2], less than 25% in experiment [3] and greater than 75% in experiment [4]. The inhibition at 1 µM in experiment [2] was less than 25%; in experiment [4], 25 to 75%.

`Cc1cnn(C(=O)N2CCN(S(C)(=O)=O)CC2)c1` [Example 162, (4-Methyl-1H-pyrazol-1-yl)(4-(methylsulfonyl)piperazin-1-yl)methanone]: the inhibition at 1 µM in experiment [1], in experiment [2], in experiment [3] and in experiment [4] was less than 25% each time. Moreover, the inhibition at 10 µM in experiment [1] is less than 25%; in experiment [2], greater than 75%; in experiment [3] it was less than 25%; in experiment [4], 25 to 75%.

Take `CS(=O)(=O)N1CCCN(C(=O)n2cc(C(F)(F)F)cn2)CC1` [Example 155, (4-(Methylsulfonyl)-1,4-diazepan-1-yl)(4-(trifluoromethyl)-1H-pyrazol-1-yl)methanone]: the inhibition at 1 µM in experiment [1] was less than 25%; in experiment [2] it was greater than 75%; in experiment [3], 25 to 75%; in experiment [4], less than 25%. For the same compound, the inhibition at 10 µM was 25 to 75% in experiment [1], greater than 75% in experiment [2], greater than 75% in experiment [3] and greater than 75% in experiment [4].

For `CC(=O)N1CCN(C(=O)n2cc(C)cn2)CC1` [Example 161, 1-(4-(4-Methyl-1H-pyrazole-1-carbonyl)piperazin-1-yl)ethanone], the inhibition at 1 µM in experiment [1], in experiment [2], in experiment [3] and in experiment [4] was less than 25% in each case. In addition, the inhibition at 10 µM in experiment [1] is less than 25%; in experiment [2], greater than 75%; in experiment [3] it was less than 25%; in experiment [4] it was less than 25%.

`Cc1cnn(C(=O)N2CCN(C(=O)OC(C)(C)C)CC2)c1` [Example 5, tert-Butyl 4-(4-methyl-1H-pyrazole-1-carbonyl)piperazine-1-carboxylate]: the inhibition at 1 µM in experiment [1] is less than 25%; in experiment [2] it was greater than 75%; in experiment [3], less than 25%; in experiment [4] it was 25 to 75%. Moreover, the inhibition at 10 µM in experiment [1] was 25 to 75%; in experiment [2] it was greater than 75%; in experiment [3], greater than 75%; in experiment [4], greater than 75%.

Take `CCN(Cc1cccc(OC)c1)C(=O)n1cc(C#N)cn1` [Example 249, 4-Cyano-N-ethyl-N-(3-methoxybenzyl)-1H-pyrazole-1-carboxamide]: the inhibition at 1 µM in experiment [1] (gel-based competitive ABPP) was greater than 75%; in experiment [2] (gel-based competitive ABPP), less than 25%; in experiment [3] (gel-based competitive ABPP) it was greater than 75%; in experiment [4] (gel-based competitive ABPP) it was less than 25%. In addition, the inhibition at 10 µM in experiment [1] (gel-based competitive ABPP) is greater than 75%; in experiment [2] (gel-based competitive ABPP) it was 25 to 75%; in experiment [3] (gel-based competitive ABPP), greater than 75%; in experiment [4] (gel-based competitive ABPP), greater than 75%. The IC50 in experiment [1] is 100 to 1000 nM; in experiment [3] it was less than 100 nM; in experiment [4], greater than 1000 nM.

Consider `CC(C)(C)OC(=O)N1CCN(C(=O)n2cccn2)CC1` [Example 4, tert-Butyl 4-(1H-pyrazole-1-carbonyl)piperazine-1-carboxylate], for which the inhibition at 1 µM in experiment [1] was less than 25%; in experiment [2] it was less than 25%; in experiment [3], greater than 75%; in experiment [4], 25 to 75%. In addition, the inhibition at 10 µM in experiment [1] is 25 to 75%; in experiment [2], greater than 75%; in experiment [3] it was greater than 75%; in experiment [4], greater than 75%.

For `O=C(N1CCCCC1)n1cc(C(F)(F)F)cn1` [Example 200, Piperidin-1-yl(4-(trifluoromethyl)-1H-pyrazol-1-yl)methanone], the inhibition at 1 µM in experiment [1], in experiment [2], in experiment [3] and in experiment [4] was greater than 75% throughout. Besides, the inhibition at 10 µM in experiment [1], in experiment [2], in experiment [3] and in experiment [4] was greater than 75% in each case. Moreover, the IC50 is greater than 1000 nM in experiment [1]; 100 to 1000 nM in experiment [2] (mouse brain membrane fraction or cell lysates, 30 min preincubation at 37° C.); 100 to 1000 nM in experiment [3]; 100 to 1000 nM in experiment [4].

`O=C(N1CCN(Cc2ccc(-c3ccccc3)cc2OCc2ccccc2)CC1)n1cc(C(F)(F)F)cn1` [Example 147, (4-((3-(Benzyloxy)biphenyl-4-yl)methyl)piperazin-1-yl)(4-(trifluoromethyl)-1H-pyrazol-1-yl)methanone]: the inhibition at 1 µM is greater than 75% in experiment [1], less than 25% in experiment [2], greater than 75% in experiment [3] and greater than 75% in experiment [4]. Moreover, the inhibition at 10 µM in experiment [1], in experiment [2], in experiment [3] and in experiment [4] was greater than 75% throughout.
